Values quoted from earlier work as cited in patent US20250057162A1, “FUNGICIDAL COMPOSITIONS” (SYNGENTA CROP PROTECTION AG, priority 2021, published 2025).

System: Mycosphaerella graminicola (Septoria tritici)

SMILES: COc1ccnc(C(=O)N[C@@H](C)C(=O)O[C@@H](C)C(c2ccc(F)cc2)c2ccc(F)cc2)c1OC(C)=O [Florylpicoxamid, (1S)-2,2-bis(4-fluorophenyl)-1-methylethyl N-{[3-(acetyloxy)-4-methoxy-2-pyridyl]carbonyl}-L-alaninate]
- control of wheat leaf blotch disease (in words): particularly effective
